Reference: the Deep4Chem optical property database
Values belong to the compound of their own block, whether it stands above or below them.

Assay: photoluminescence quantum yield (fraction); solvent given as SMILES

Compound: CN(C)c1ccc(C2=Nc3scc[n+]3[B-](F)(F)O2)cc1
photoluminescence quantum yield (in C1CCOC1): 0.99
photoluminescence quantum yield (in CC#N): 0.1
photoluminescence quantum yield (in Cc1ccccc1): 0.99
photoluminescence quantum yield (in ClCCl): 0.86

photoluminescence quantum yield (in C1COCCO1): 0.421
Compound: COc1ccc(C2=N/C(=C\c3ccc(C#N)cc3)C(=O)O2)cc1OC

photoluminescence quantum yield (in ClC(Cl)Cl): 0.49
Compound: COc1ccc(-c2cc(-c3ccc(N(C)C)cc3)nc(-c3ccccc3)n2)cc1

photoluminescence quantum yield (in CS(C)=O): 0.76
Compound: COc1cc2sc3nc(-c4ccccc4OC)sc3c2cc1OC

photoluminescence quantum yield (in CCO): 0.582
Compound: Nc1ccc2nc3c4ccccc4c(=[NH2+])cc-3oc2c1

photoluminescence quantum yield (in C1CCCCC1): 0.0005
photoluminescence quantum yield (in C1COCCO1): 0.003
photoluminescence quantum yield (in CC#N): 0.007
photoluminescence quantum yield (in CCO): 0.02
photoluminescence quantum yield (in OCC(F)(F)F): 0.04
Compound: Cc1oc2c(Cl)cc3c(C)cc(=O)oc3c2c1C

photoluminescence quantum yield (in C1COCCO1): 0.358
photoluminescence quantum yield (in CN(C)C=O): 0.018
photoluminescence quantum yield (in CO): 0.006
photoluminescence quantum yield (in CS(C)=O): 0.004
Compound: O=C1/C(=C2\Sc3ccc(S(=O)(=O)Nc4ccccc4)cc3C2=O)Sc2ccc(S(=O)(=O)Nc3ccccc3)cc21

Compound: CN(C)c1ccc(/C=C/C=C/c2ccc(C#N)cc2)cc1
photoluminescence quantum yield (in C1CCOC1): 0.098
photoluminescence quantum yield (in CC#N): 0.223
photoluminescence quantum yield (in CCCC#N): 0.125
photoluminescence quantum yield (in CCCCCC): 0.059
photoluminescence quantum yield (in CCCCOCCCC): 0.068
photoluminescence quantum yield (in CCO): 0.187
photoluminescence quantum yield (in CCOCC): 0.085

photoluminescence quantum yield (in ClCCl): 0.23
Compound: c1ccc(C2=C(c3ccccc3)c3cccc4c3c(cc3nc5c(-c6ccccc6)ccc(-c6ccccc6)c5nc34)O2)cc1

Compound: CCCCC(CC)CN1C(=O)c2cc(Oc3ccc(C(C)(C)C)cc3)c3c4c(Oc5ccc(OC)cc5)cc5c6c(cc(Oc7ccc(OC)cc7)c(c7c(Oc8ccc(C(C)(C)C)cc8)cc(c2c37)C1=O)c64)C(=O)N(c1c(C(C)C)cccc1C(C)C)C5=O (stereo not given)
photoluminescence quantum yield (in Cc1ccccc1): 0.57

photoluminescence quantum yield (in C1COCCO1): 0.95
photoluminescence quantum yield (in CC#N): 0.26
photoluminescence quantum yield (in CO): 0.03
photoluminescence quantum yield (in ClCCl): 0.2
Compound: CN(C)c1nc(N(C)C)c2nc(C#N)n(Cc3ccccc3)c2n1

Compound: Cc1ccccc1[B-]1(c2ccccc2C)n2nc(C(F)(F)F)cc2-c2c3ccccc3cc[n+]21
photoluminescence quantum yield (in C1CCCCC1): 0.0285
photoluminescence quantum yield (in Cc1ccccc1): 0.0259
photoluminescence quantum yield (in ClCCl): 0.0197

photoluminescence quantum yield (in ClCCl): 0.32
Compound: C(#Cc1ccc2c(c1)c1cc(C#Cc3ccccc3)ccc1n2-c1cc2ccccc2c2ccccc12)c1ccccc1

Compound: COC(=O)c1ccc(C#Cc2ccc(N(C)C)cc2)cc1
photoluminescence quantum yield (in C1CCCCC1): 0.351
photoluminescence quantum yield (in C1CCOC1): 0.15
photoluminescence quantum yield (in C1COCCO1): 0.303
photoluminescence quantum yield (in CC1CCCO1): 0.248
photoluminescence quantum yield (in CC#N): 0.134
photoluminescence quantum yield (in CC(C)=O): 0.428
photoluminescence quantum yield (in CC(C)CC(C)(C)C): 0.31
photoluminescence quantum yield (in CC(C)O): 0.013
photoluminescence quantum yield (in CCCCCCCCCCCCCCCC): 0.314
photoluminescence quantum yield (in CCCCCCCCCCCCCCCCCl): 0.339
photoluminescence quantum yield (in CCOC(C)=O): 0.14
photoluminescence quantum yield (in CCOCC): 0.216
photoluminescence quantum yield (in CN(C)C=O): 0.065
photoluminescence quantum yield (in CO): 0.001
photoluminescence quantum yield (in CS(C)=O): 0.053
photoluminescence quantum yield (in Cc1ccccc1): 0.324

photoluminescence quantum yield (in ClCCl): 0.61
Compound: Cc1nc(-c2cc(C(F)(F)F)ccc2O)n2c1CCCC2

photoluminescence quantum yield (in CC#N): 0.43
Compound: CC(C)Oc1ccc(C#Cc2cc3ccccc3oc2=O)cc1

photoluminescence quantum yield (in ClCCl): 0.3
Compound: CCCCN(CCCC)c1ccc(C#Cc2cc(C#Cc3ccc(N(CCCC)CCCC)cc3)c(C#Cc3c(F)c(F)c(F)c(F)c3F)cc2C#Cc2c(F)c(F)c(F)c(F)c2F)cc1

photoluminescence quantum yield (in ClCCl): 0.136
Compound: Oc1ccc2ccccc2c1-c1nc(-c2ccccc2)c2ccccn12

photoluminescence quantum yield (in CCO): 0.011
Compound: CC(C)=CCN1C(=O)c2cccc3c2c(cc2oc(C)nc23)C1=O

photoluminescence quantum yield (in ClCCl): 0.21
Compound: CCOC(=O)c1sc(-c2ccc(-c3cc(C4CC4)c(C(=O)OCC)s3)s2)cc1C1CC1

photoluminescence quantum yield (in CCCCCC): 0.35
Compound: COc1ccc2c(c1)N(c1ccc(C)cc1)c1cc3c(cc1=N2)Oc1c(cc(C(C)(C)C)cc1C(C)(C)C)N=3

Compound: c1ccc(-c2nc(-c3ccccc3)nc(-c3cc(-n4c5ccccc5c5ncccc54)cc(-n4c5ccccc5c5ncccc54)c3)n2)cc1
photoluminescence quantum yield (in O=P(c1ccccc1)(c1ccccc1)c1ccc2oc3ccc(P(=O)(c4ccccc4)c4ccccc4)cc3c2c1): 0.21

photoluminescence quantum yield (in C1CCCCC1): 0.58
photoluminescence quantum yield (in CC#N): 0.51
photoluminescence quantum yield (in CCO): 0.5
photoluminescence quantum yield (in CCOC(C)=O): 0.54
Compound: COC(=O)c1nc(-c2cccc3ccccc23)oc1C

photoluminescence quantum yield (in ClC(Cl)Cl): 0.72
Compound: Cc1cc(C)c(C2=C3C=CC4=[N+]3[B-]3(Oc5ccccc54)Oc4ccccc4-c4ccc2n43)c(C)c1 (stereo not given)

Compound: CC1=CC(c2ccc3ccccc3c2)=[O+][B-]2(OC(=O)C(=O)O2)O1
photoluminescence quantum yield (in CC#N): 0.03
photoluminescence quantum yield (in ClC(Cl)(Cl)Cl): 0.06

photoluminescence quantum yield (in C1CCCCC1): 0.08
Compound: CCCC1(CCC)c2cc(-c3cccc(Cc4ccc(/C=C/c5ccccc5)cc4)c3)ccc2-c2ccc(-c3cccc(Cc4ccc(/C=C/c5ccccc5)cc4)c3)cc21

Compound: CCOC(=O)COc1ccc(/C=C/C2=C3c4ccccc4C(c4ccc[nH]4)=[N+]3[B-](F)(F)n3ccc(C)c32)cc1
photoluminescence quantum yield (in C1CCOC1): 0.003
photoluminescence quantum yield (in CC#N): 0.003
photoluminescence quantum yield (in CCCCCC): 0.009
photoluminescence quantum yield (in CO): 0.005
photoluminescence quantum yield (in Cc1ccccc1): 0.004
photoluminescence quantum yield (in ClCCl): 0.003

Compound: c1cc2cc(c1)c1ccc3ccc4ccc(cc4c3c1)c1ccc3ccc4ccc(cc4c3c1)c1cccc2c1
photoluminescence quantum yield (in Cc1ccccc1): 0.92

Compound: CC1(C)c2ccccc2N(c2ccc(-c3ccc(C#N)cc3)cc2)c2ccccc21
photoluminescence quantum yield (in Cc1ccccc1): 0.178
photoluminescence quantum yield (in N#Cc1ccc2c(c1)c1ccccc1n2-c1cccc(-n2c3ccccc3c3ccccc32)c1): 0.36

photoluminescence quantum yield (in CC#N): 0.042
Compound: Oc1ccc2ccccc2c1/C=N/c1cc2ccccc2cc1/N=C/c1c(O)ccc2ccccc12

photoluminescence quantum yield (in C1COCCO1): 0.42
photoluminescence quantum yield (in CC#N): 0.18
photoluminescence quantum yield (in CCCCOCCCC): 0.35
photoluminescence quantum yield (in CCOC(C)=O): 0.23
Compound: Clc1nc(Nc2ccccc2)nc(Nc2ccc3cc4ccccc4cc3c2)n1

photoluminescence quantum yield (in O): 0.72
Compound: CCn1c(-c2ccc(-c3ccc(-c4ccc(-c5n(CC)c6cc(C)ccc6[n+]5CC)cc4)cc3)cc2)[n+](CC)c2ccc(C)cc21

photoluminescence quantum yield (in ClC(Cl)Cl): 0.52
Compound: CCCCC1(c2ccc(OC)cc2)Nc2ccccc2N=C1c1ccc(OC)cc1 (stereo not given)

Compound: CCCC1=Cc2nc1ccc1[nH]c(cc1CCC)c1nc(c(O)cc3[nH]c2cc3CCC)C(CCC)=C1
photoluminescence quantum yield (in Cc1ccccc1): 0.15

photoluminescence quantum yield (in C1CCOC1): 0.67
Compound: COc1cc2c(cc1-c1ccc(C)cc1)Cc1c3c(c4c(c1-2)-c1cc(OC)c(-c2ccc(C)cc2)cc1C4)C(=O)N(CCC(C)C)C3=O

Compound: CCCCCCc1ccc(-n2c3c4cccc(OC)c4nnc3c3c2c2nnc4c(OC)cccc4c2n3-c2ccc(CCCCCC)cc2)cc1
photoluminescence quantum yield (in Cc1ccccc1): 0

photoluminescence quantum yield (in ClCCl): 0.14
Compound: COc1ccc(-c2ccc(/C=C/c3ccncn3)cc2)cc1

Compound: CC(=O)O[B-]1(OC(C)=O)OC(/C=C/c2cccc3ccccc23)=CC(/C=C/c2cccc3ccccc23)=[O+]1
photoluminescence quantum yield (in C1CCOC1): 0.75
photoluminescence quantum yield (in CC#N): 0.43
photoluminescence quantum yield (in CC(C)=O): 0.58
photoluminescence quantum yield (in CS(C)=O): 0.38
photoluminescence quantum yield (in Cc1ccccc1): 0.84
photoluminescence quantum yield (in ClC(Cl)Cl): 0.73
photoluminescence quantum yield (in ClCCl): 0.64

photoluminescence quantum yield (in C1CCOC1): 0.19
Compound: CCCCn1c2ccccc2c2c1c1c3ccccc3n(CCCC)c1c1c3ccccc3n(CCCC)c21

photoluminescence quantum yield (in ClCCl): 0.15
Compound: CC(C)(C)c1ccc(-c2c3c(c(-c4ccc(C(C)(C)C)cc4)c4cc5ccccc5cc24)Cc2c(c(-c4ccc(C(C)(C)C)cc4)c4cc5ccccc5cc4c2-c2ccc(C(C)(C)C)cc2)C3)cc1

photoluminescence quantum yield (in ClC(Cl)Cl): 0.84
Compound: c1ccc(-c2c3c(nc4ccccc24)-c2cc4c(cc2CC3)-c2nc3ccccc3c(-c3ccccc3)c2CC4)cc1

Compound: CCC1=C(C)C2=C(C)c3cccn3[B-](F)(F)[N+]2=C1C
photoluminescence quantum yield (in C1CCCCC1): 0.96
photoluminescence quantum yield (in CC(C)=O): 0.79
photoluminescence quantum yield (in CCO): 0.84
photoluminescence quantum yield (in CCOC(C)=O): 0.84
photoluminescence quantum yield (in CO): 0.76
photoluminescence quantum yield (in OCC(F)(F)F): 0.75

photoluminescence quantum yield (in CCO): 0.04
photoluminescence quantum yield (in ClC(Cl)Cl): 0.33
Compound: CCOC(=O)c1ccccc1-c1c2ccc(=[N+](CC)CC)cc-2oc2c1c(=O)oc1cc3c(cc12)CCCN3C

photoluminescence quantum yield (in ClCCl): 0.55
Compound: COc1ccc(C#Cc2c(C#Cc3ccc(OC)cc3)c(C#Cc3ccc(OC)cc3)c(C#Cc3ccc(OC)cc3)c(C#Cc3ccc(OC)cc3)c2C#Cc2ccc(OC)cc2)cc1

photoluminescence quantum yield (in ClCCl): 0.55
Compound: Cc1cccc(-c2cnc3ccc4ccccc4n23)c1

photoluminescence quantum yield (in C1CCOC1): 0.21
Compound: N#Cc1c(N2CCCCC2)cc(-c2cccs2)c2c1CCc1ccccc1-2

photoluminescence quantum yield (in CC#N): 0.22
photoluminescence quantum yield (in ClC(Cl)Cl): 0.34
Compound: F[B-]1(F)n2c(-c3ccccc3)cc(-c3ccccc3)c2N=C2C(c3ccccc3)=CC(c3ccccc3)=[N+]21

photoluminescence quantum yield (in ClC(Cl)Cl): 0.08
Compound: O=Cc1ccc(C#CC(C#Cc2ccc(C=O)s2)=Cc2ccc(C=C(C#Cc3ccc(C=O)s3)C#Cc3ccc(C=O)s3)cc2)s1

photoluminescence quantum yield (in ClCCl): 0.38
Compound: Clc1ccc2nc3cc4ccccc4cc3c(-c3ccccc3)c2c1

photoluminescence quantum yield (in ClCCl): 0.014
Compound: c1csc(-n2c3ccccc3c3ccccc32)c1

Compound: O=Cc1c(O)c(-c2nc3ccccc3s2)cc2ccccc12
photoluminescence quantum yield (in C1CCOC1): 0.066
photoluminescence quantum yield (in CC#N): 0.052
photoluminescence quantum yield (in CC(C)=O): 0.053
photoluminescence quantum yield (in CCO): 0.07
photoluminescence quantum yield (in CCOC(C)=O): 0.068
photoluminescence quantum yield (in CN(C)C=O): 0.077
photoluminescence quantum yield (in CO): 0.061
photoluminescence quantum yield (in Cc1ccccc1): 0.068
photoluminescence quantum yield (in ClC(Cl)Cl): 0.065
photoluminescence quantum yield (in ClCCl): 0.109

photoluminescence quantum yield (in c1ccccc1): 0.57
Compound: COc1ccc(-c2nc3c(ccc4ccccc43)oc2=O)cc1

photoluminescence quantum yield (in ClCCl): 0.31
Compound: CC(C)(C)c1ccc(-c2cnc3cccc(-c4ccccc4)n23)cc1

photoluminescence quantum yield (in C1CCCCC1): 0.46
photoluminescence quantum yield (in CC#N): 0.55
photoluminescence quantum yield (in CO): 0.39
photoluminescence quantum yield (in ClCCl): 0.41
Compound: COc1c2ccccc2c(OC)c2c1c1ccccc1n2C

Compound: c1ccc(-c2nnc(-c3cc(-c4nnc(-c5ccccc5)o4)c(-n4c5ccccc5c5ccccc54)cc3-n3c4ccccc4c4ccccc43)o2)cc1
photoluminescence quantum yield (in Cc1ccccc1): 0.101
photoluminescence quantum yield (in O=P(c1ccccc1)(c1ccccc1)c1ccccc1Oc1ccccc1P(=O)(c1ccccc1)c1ccccc1): 0.581
